Laboratory results reported in ChEMBL document CHEMBL1152470, “Antimicrobial activities of tigecycline and other broad-spectrum antimicrobials tested against serine carbapenemase- and metallo-beta-lactamase-producing Enterobacteriaceae: report from the SENTRY Antimicrobial Surveillance Program” (2008).
≈ marks a conversion by molar mass, not a printed value.

Assays:
Assay type in all cases: functional
[1] = test system: Enterobacter sp.; assay: Antimicrobial activity against carbapenemase producing Enterobacter sp. by CLSI broth microdilution method
[2] = test system: Klebsiella sp.; assay: Antimicrobial activity against Klebsiella sp. assessed as susceptible isolates by CLSI breakpoint assay
[3] = test system: Klebsiella sp.; assay: Antimicrobial activity against Klebsiella sp. assessed as resistant isolates by CLSI breakpoint assay
[4] = test system: Enterobacter sp.; assay: Antimicrobial activity against carbapenemase producing Enterobacter sp. assessed as susceptible isolates by CLSI breakpoint assay
[5] = test system: Enterobacteriaceae; assay: Antimicrobial activity against carbapenemase producing Enterobacteriaceae assessed as resistant isolates by CLSI breakpoint assay
[6] = test system: Enterobacter sp.; assay: Antimicrobial activity against carbapenemase producing Enterobacter sp. assessed as resistant isolates by CLSI breakpoint assay
[7] = test system: Klebsiella sp.; assay: Antimicrobial activity against Klebsiella sp. by CLSI broth microdilution method
[8] = test system: Enterobacteriaceae; assay: Antimicrobial activity against carbapenemase producing Enterobacteriaceae by CLSI broth microdilution method
[9] = test system: Enterobacteriaceae; assay: Antimicrobial activity against carbapenemase producing Enterobacteriaceae assessed as susceptible isolates by CLSI breakpoint assay
[10] = test system: Klebsiella pneumoniae; assay: Antimicrobial activity against KPC2/3 carbapenemase producing Klebsiella pneumoniae […]
[11] = test system: Escherichia coli; assay: Antimicrobial activity against KPC2/3 carbapenemase producing Escherichia coli […]
[12] = test system: Serratia marcescens; assay: Antimicrobial activity against SME1 carbapenemase producing Serratia marcescens […]
[13] = test system: Citrobacter freundii; assay: Antimicrobial activity against KPC2/3 carbapenemase producing Citrobacter freundii […]
[14] = test system: Klebsiella oxytoca; assay: Antimicrobial activity against KPC2 carbapenemase producing Klebsiella oxytoca […]
[15] = test system: Citrobacter freundii; assay: Antimicrobial activity against KPC2 carbapenemase producing Citrobacter freundii […]
[16] = test system: Enterobacter cloacae; assay: Antimicrobial activity against KPC2 carbapenemase producing Enterobacter cloacae […]
[17] = test system: Serratia marcescens; assay: Antimicrobial activity against KPC2/3 carbapenemase producing Serratia marcescens […]
[18] = test system: Enterobacter cloacae; assay: Antimicrobial activity against KPC2/3 carbapenemase producing Enterobacter cloacae […]
[19] = test system: Citrobacter freundii; assay: Antimicrobial activity against KPC3 carbapenemase producing Citrobacter freundii […]
[20] = test system: Enterobacter hormaechei; assay: Antimicrobial activity against KPC2 carbapenemase producing Enterobacter hormaechei […]
[21] = test system: Klebsiella pneumoniae; assay: Antimicrobial activity against VIM1 carbapenemase producing Klebsiella pneumoniae […]
[22] = test system: Klebsiella pneumoniae; assay: Antimicrobial activity against KPC2 carbapenemase producing Klebsiella pneumoniae […]
[23] = test system: Klebsiella oxytoca; assay: Antimicrobial activity against KPC3 carbapenemase producing Klebsiella oxytoca […]
[24] = test system: Enterobacter cloacae; assay: Antimicrobial activity against NMC-A carbapenemase producing Enterobacter cloacae […]
[25] = test system: Enterobacter cloacae; assay: Antimicrobial activity against VIM1 carbapenemase producing Enterobacter cloacae […]
[26] = test system: Pluralibacter gergoviae; assay: Antimicrobial activity against KPC3 carbapenemase producing Enterobacter gergoviae […]
[27] = test system: Enterobacter cloacae; assay: Antimicrobial activity against IMP1 carbapenemase producing Enterobacter cloacae […]
[28] = test system: Klebsiella oxytoca; assay: Antimicrobial activity against KPC2/3 carbapenemase producing Klebsiella oxytoca […]
[29] = test system: Proteus mirabilis; assay: Antimicrobial activity against Proteus mirabilis
[30] = test system: Enterobacteriaceae; assay: Antimicrobial activity against Enterobacteriaceae

Row | Compound | MIC50 [1] | MIC90 [1] | Activity [2] | Activity [3] | Activity [4] | Activity [5] | Activity [6] | MIC50 [7] | MIC90 [7] | MIC50 [8] | MIC90 [8] | Activity [9] | also measured
1 | C[C@@H](O)[C@H]1C(=O)N2C(C(=O)O)=C(S[C@@H]3CN[C@H](C(=O)Nc4cccc(C(=O)O)c4)C3)[C@H](C)[C@H]12 | > 8 µg/mL | > 16 µg/mL | 5% | 83.3% | 8.3% | 73.1% | 12.5% | > 8 µg/mL | > 32 µg/mL | 8 µg/mL (≈ 16.8 µM) | 32 µg/mL (≈ 67.3 µM) | 7.7% | –
2 | CN(C)[C@@H]1C(O)=C(C(N)=O)C(=O)[C@@]2(O)C(O)=C3C(=O)c4c(O)cccc4[C@@](C)(O)[C@H]3C[C@@H]12 [TETRACYCLINE] | 4 µg/mL (≈ 9 µM) | > 8 µg/mL | 66.7% | 13.3% | 70.8% | 19.2% | 20.8% | 4 µg/mL (≈ 9 µM) | > 8 µg/mL | 4 µg/mL (≈ 9 µM) | > 8 µg/mL | 35.6% | –
3 | C[C@@H](O)[C@H]1C(=O)N2C(C(=O)O)=C(SCCNC=N)C[C@H]12 [IMIPENEM ANHYDROUS] | 4 µg/mL (≈ 13.4 µM) | > 8 µg/mL | 21.7% | 46.7% | 54.2% | – | 17.7% | 8 µg/mL (≈ 26.7 µM) | 16 µg/mL (≈ 53.4 µM) | 8 µg/mL (≈ 26.7 µM) | > 8 µg/mL | 37.5% | –
4 | POLYMYXIN B | < 1 µg/mL | < 1 µg/mL | 93.3% | 6.7% | 95.2% | 11.9% | 4.8% | < 1 µg/mL | < 1 µg/mL | < 1 µg/mL | 4 µg/mL | 88.1% | –
5 | CN(C)c1cc(NC(=O)CNC(C)(C)C)c(O)c2c1C[C@H]1C[C@H]3[C@H](N(C)C)C(O)=C(C(N)=O)C(=O)[C@@]3(O)C(O)=C1C2=O [TIGECYCLINE] | 0.25 µg/mL (≈ 0.427 µM) | 0.5 µg/mL (≈ 0.854 µM) | 100% | 0% | 100% | 0% | 0% | 1 µg/mL (≈ 1.71 µM) | 2 µg/mL (≈ 3.41 µM) | 0.5 µg/mL (≈ 0.854 µM) | 1 µg/mL (≈ 1.71 µM) | 100% | MIC [10]: 0.25 µg/mL (≈ 0.427 µM); MIC [11]: 0.12 µg/mL (≈ 0.205 µM); MIC [12]: 0.5 µg/mL (≈ 0.854 µM); MIC [13]: 0.25 µg/mL (≈ 0.427 µM); MIC [14]: 0.12 µg/mL (≈ 0.205 µM); MIC [15]: 1 µg/mL (≈ 1.71 µM); MIC [16]: 0.5 µg/mL (≈ 0.854 µM); MIC [17]: 0.5 µg/mL (≈ 0.854 µM); MIC [18]: 0.12 µg/mL (≈ 0.205 µM); MIC [19]: 0.12 µg/mL (≈ 0.205 µM); MIC [20]: 2 µg/mL (≈ 3.41 µM); MIC [21]: 0.12 µg/mL (≈ 0.205 µM); MIC [22]: 1 µg/mL (≈ 1.71 µM); MIC [23]: 0.5 µg/mL (≈ 0.854 µM); MIC [24]: 0.12 µg/mL (≈ 0.205 µM); MIC [25]: 0.25 µg/mL (≈ 0.427 µM); MIC [26]: 0.25 µg/mL (≈ 0.427 µM); MIC [27]: 0.25 µg/mL (≈ 0.427 µM); MIC [28]: 0.25 µg/mL (≈ 0.427 µM)
6 | GENTAMICIN | 8 µg/mL | > 8 µg/mL | 58.3% | 31.2% | 42.9% | – | 38.1% | < 2 µg/mL | > 8 µg/mL | 4 µg/mL | > 8 µg/mL | 73.3% | –
7 | C[C@@H](O)[C@H]1C(=O)N2C(C(=O)O)=C(S[C@@H]3CN[C@H](C(=O)N(C)C)C3)[C@H](C)[C@H]12 [MEROPENEM] | 8 µg/mL (≈ 20.9 µM) | > 8 µg/mL | 20% | 61.7% | 33.3% | 50% | 41.7% | > 8 µg/mL | > 8 µg/mL | 8 µg/mL (≈ 20.9 µM) | > 8 µg/mL | 32.7% | MIC [29]: ≥ 16 µg/mL; MIC [30]: ≥ 2 µg/mL
8 | NCC[C@H](O)C(=O)N[C@@H]1C[C@H](N)[C@@H](O[C@H]2O[C@H](CN)[C@@H](O)[C@H](O)[C@H]2O)[C@H](O)[C@H]1O[C@H]1O[C@H](CO)[C@@H](O)[C@H](N)[C@H]1O [AMIKACIN] | 2 µg/mL (≈ 3.42 µM) | 16 µg/mL (≈ 27.3 µM) | 53.3% | 13.3% | 95.2% | 8.3% | 4.8% | 16 µg/mL (≈ 27.3 µM) | > 32 µg/mL | 8 µg/mL (≈ 13.7 µM) | 32 µg/mL (≈ 54.6 µM) | 73.3% | –
